Results reported in US20220151999A1, “METHODS OF TREATING ATTENTION DEFICIT HYPERACTIVITY DISORDER USING KDM1A INHIBITORS SUCH AS THE COMPOUND VAFIDEMSTAT” (ORYZON GENOMICS, S.A., priority 2019, published 2022).

Assays:
Assay type in all cases: in vivo, human
ADHD patients [1] = assay: REIMAGINE Phase IIa trial, ADHD cohort: safety and tolerability; settings: adult ADHD patients, 1.2 mg/day oral, 5 days on/2 days off, 8 weeks
From the text: (§1) As part of a Phase IIa clinical trial (REIMAGINE trial, EudraCT number 2018-002140-88) to evaluate the safety, tolerability and efficacy of the KDM1A inhibitor vafidemstat to treat aggression in adult population in patients with different CNS disorders, a cohort of ADHD patients was recruited and treated with vafidemstat for 8 weeks. A summary of the protocol of this clinical trial and results obtained in the ADHD cohort are provided below.
Reimagine is a unicenter, open-label, 1-arm, 8-week clinical study to evaluate the efficacy, safety and tolerability of vafidemstat in aggression in adult population with Alzheimer's Disease (AD), Lewy Body Dementia (LBD), Adult attention Deficit Hyperactivity Disorder (ADHD), Borderline Personality Disorder (BPD) and Autism Spectrum Disorder (ASD). Six patients to be recruited per disorder.
Main objective of the trial: To evaluate the safety and tolerability of vafidemstat in adult population with Alzheimer's Disease (AD), Lewy Body Dementia (LBD), Adult attention deficit hyperactivity disorder (ADHD), Borderline Personality Disorder (BPD), Autism Spectrum Disorder (ASD)
Treatment: All patients received vafidemstat (as free base) at a dose of 1.2 mg/day, administered orally as a single capsule, in a 5 days on/2 days off schedule, during 8 weeks. […]

ADHD patients [2] = assay: REIMAGINE Phase IIa trial, ADHD cohort: ADHD Rating Scale (ADHD-RS); settings: adult ADHD patients (5 eligible), 1.2 mg/day oral, 5 days on/2 days off, 8 weeks; paired one-tail t-test p=0.0279
From the text: as §1
(§2) Reimagine is a unicenter, open-label, 1-arm, 8-week clinical study to evaluate the efficacy, safety and tolerability of vafidemstat in aggression in adult population with Alzheimer's Disease (AD), Lewy Body Dementia (LBD), Adult attention Deficit Hyperactivity Disorder (ADHD), Borderline Personality Disorder (BPD) and Autism Spectrum Disorder (ASD). Six patients to be recruited per disorder. […]
(§3) Evaluation of the effect of treatment with vafidemstat on aggression was performed using the Clinical Global Impression (CGI) scale. […] In addition to assessing its effect on aggression, the effect of treatment with vafidemstat on ADHD patients was also evaluated using the Attention Deficit Hyperactivity Disorder Rating Scale (ADHD-RS), a validated scale that is specific for ADHD and is widely used to evaluate ADHD in adults. […] Each item is scored from 0 to 3 points, with the highest scores indicating the presence of problematic symptoms/behavior. […]

ADHD patients [3] = assay: REIMAGINE Phase IIa trial, ADHD cohort: aggression by Clinical Global Impression (CGI-S, CGI-I) scales; settings: adult ADHD patients (5 eligible), 1.2 mg/day oral, 5 days on/2 days off, 8 weeks
From the text: as §1, §2, §3

**Q.** For `Nc1nnc(CN[C@@H]2C[C@H]2c2ccc(OCc3ccccc3)cc2)o1` [vafidemstat, 5-((((1R,2S)-2-(4-(benzyloxy)phenyl)cyclopropyl)amino)methyl)-1,3,4-oxadiazol-2-amine], which “safety and tolerability of treatment” value (ADHD patients [1]) is on record?
**A.** The value was “safe and well tolerated, without significant adverse events”.

**Q.** What about the “ADHD-RS score, change from visit 1 (baseline) to visit 7” value (ADHD patients [2]) of the same molecule?
**A.** The value was “statistically significant reduction”.

**Q.** What about the “CGI-Severity (CGI-S) score, aggression, change from visit 1 (baseline) to visit 7” value (ADHD patients [3]; paired one-tail t-test p=0.0043) of the same molecule?
**A.** Its value is “statistically significant reductions”.

**Q.** And the “CGI-Improvement (CGI-I) score, aggression, change from visit 1 (baseline) to visit 7” value (ADHD patients [3]; paired one-tail t-test p=0.0352)?
**A.** The value was “statistically significant reductions”.
